Reference: US20090047246A1, “NOVEL INHIBITORS OF HEPATITIS C VIRUS REPLICATION” (InterMune, Inc., priority 2007, published 2009)
Where two headings read alike, the source gives them in different places.

Tests used:
NS3 Helicase = NS3 Helicase (Hepatitis C virus genotype 1b, UniProt P26663); test: Activity of NS3 Helicase in Presence of Detergent with or without LDAO (Table A); assay type: biochemical
Protocol: In another embodiment, at least one detergent is added to a solution containing NS3 to improve the helicase activity. In some embodiments, the detergent is selected from the group consisting of LDAO, Tween 20, Triton X100, Pluronic F127, CHAPS, β-octyl glucoside, laurylmaltoside, N-lauroylsarcosine, and hexadecyltrimethylammonium bromide. In a preferred embodiment, LDAO is added. In a more preferred embodiment, at least one additional detergent in added to the solution containing NS3 and LDAO. In some embodiments, the additional detergent(s) is/are selected from the group consisting of Tween 20, Triton X100, Pluronic F127, CHAPS, β-octyl glucoside, laurylmaltoside, N-lauroylsarcosine, and hexadecyltrimethylammonium bromide. Table A represents the helicase activity of NS3 in the presence of LDAO and at least one additional detergent; and, in the absence of LDAO and the presence of at least one other detergent.

HCV NS3/4a protease = HCV NS3/4a protease activity, effect of additives on reaction rate (Assay Example 1); assay type: biochemical, HCV genotype 1b-K2040; settings: base buffer 50 mM Tris-HCl pH 7.5, 15% glycerol; for Conclusion (effect of additive on NS3/4a protease reaction rate): 0.5 μM FRET substrate, additive at the concentrations tested
Protocol: In order to identify reaction conditions that give high levels of HCV NS3/4a protease activity, several additives were analyzed to determine their effect on reaction rate. The base buffer used was 50 mM Tris-HCl, pH 7.5 containing 15% glycerol. The FRET-based assay substrate used (sequence: Ac-DE-Dap(QXL520)-EE-Abu-ψ-[COO]-AS-Cys(5-FAMsp)-NH2) was obtained from Anaspec, Inc. (San Jose, Calif.). The NS4a surrogate peptide used (KGSVVIVGRIILSGRK) was obtained from Midwest Biotech (Fishers, Ind.). The NS3 enzyme used was the benchmark wild-type full length enzyme derived from HCV genotype 1b-K2040. The reaction rate for the NS3 catalyzed hydrolysis of 0.5 μM substrate in base buffer was used as a reference.

HCV NS3 helicase = target: T1, HCV NS3 helicase (Hepatitis C virus genotype 1b, UniProt P26663); test: HCV Helicase Prompt FRET Assay (Example A); assay type: biochemical; settings: read-out: IC50 Activity
T1 construct: full-length NS3 (1-631), purified at Array BioPharma
Outline: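 Initial unwinding rates, monitored as FAM fluorescence gain (ex 485, em 535) over ~30 min at room temperature, gave IC50 via 4- or 5-parameter logistic fits. Reactions: 50 nM quenched duplex, 250 nM capture strand, 300 μM ATP, 5–6 nM NS3 1-631 after 5 min compound preincubation, MOPS pH 7.0 buffer, 2% DMSO.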

[1] = plus LDAO 0.6 mM, detergent 0.020%
[2] = plus LDAO 0.6 mM, detergent 0.020%, control = 100
[3] = plus LDAO 0.6 mM, detergent 0.075%
[4] = plus LDAO 0.6 mM, detergent 0.075%, control = 100
[5] = plus LDAO 0.6 mM, detergent 0.05 mM
[6] = plus LDAO 0.6 mM, detergent 0.05 mM, control = 100
[7] = plus LDAO 0.6 mM, detergent 0.2 mM
[8] = plus LDAO 0.6 mM, detergent 0.2 mM, control = 100
[9] = Table 34, compounds made using Schemes 51-52
[10] = HCV NS3 helicase, tables do not say whether Example A or Example B assay
[11] = Table 36, compounds made using Scheme 54
[12] = Table 31, compounds made using Schemes 38-45

Chain of NS3 Helicase (P26663 1027-1657): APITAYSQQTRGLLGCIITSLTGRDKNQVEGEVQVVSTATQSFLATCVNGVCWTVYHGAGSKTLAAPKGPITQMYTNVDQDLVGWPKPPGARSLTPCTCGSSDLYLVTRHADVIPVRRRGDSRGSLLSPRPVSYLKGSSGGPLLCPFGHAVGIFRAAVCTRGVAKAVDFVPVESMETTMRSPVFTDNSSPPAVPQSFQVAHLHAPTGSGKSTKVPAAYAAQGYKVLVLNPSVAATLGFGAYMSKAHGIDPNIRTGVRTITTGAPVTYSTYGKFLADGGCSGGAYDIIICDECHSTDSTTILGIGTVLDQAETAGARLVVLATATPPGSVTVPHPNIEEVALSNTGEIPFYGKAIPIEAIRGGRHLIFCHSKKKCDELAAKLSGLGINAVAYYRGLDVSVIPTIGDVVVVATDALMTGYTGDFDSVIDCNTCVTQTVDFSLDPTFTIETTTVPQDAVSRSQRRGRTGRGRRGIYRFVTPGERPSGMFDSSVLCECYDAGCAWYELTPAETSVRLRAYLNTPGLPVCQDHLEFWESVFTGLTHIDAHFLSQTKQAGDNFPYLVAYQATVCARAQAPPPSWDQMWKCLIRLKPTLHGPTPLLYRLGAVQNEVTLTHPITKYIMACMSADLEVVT
T1 sequence (P26663 1027-1657): as above

CCCCCCCCO[C@@H]1O[C@H](CO)[C@@H](O)[C@H](O)[C@H]1O [β-octyl glucoside]
Slope (NS3 Helicase; [1]): −0.45 mP/min | Activity (NS3 Helicase; [2]): 74% | Slope (NS3 Helicase; [3]): −0.38 mP/min | Activity (NS3 Helicase; [4]): 62%

CCCCCCCCCCCC(=O)N(C)CC(=O)O [N-lauroylsarcosine]
Slope (NS3 Helicase; [5]): −0.53 mP/min | Activity (NS3 Helicase; [6]): 87% | Slope (NS3 Helicase; [7]): −0.28 mP/min | Activity (NS3 Helicase; [8]): 46%

Triton X-100
Conclusion (effect of additive on NS3/4a protease reaction rate) (HCV NS3/4a protease): Improvement in activity at 12 μM

CCCCCCCCCCCCO[C@@H]1O[C@H](CO)[C@@H](O[C@H]2O[C@H](CO)[C@@H](O)[C@H](O)[C@H]2O)[C@H](O)[C@H]1O [laurylmaltoside]
Slope (NS3 Helicase; [5]): −0.8 mP/min | Activity (NS3 Helicase; [6]): 131% | Slope (NS3 Helicase; [7]): −1.23 mP/min | Activity (NS3 Helicase; [8]): 202%

CCCCCCCCCCCC[N+](C)(C)[O-] [LDAO, lauryl (dimethyl)-amine oxide]
Conclusion (effect of additive on NS3/4a protease reaction rate) (HCV NS3/4a protease): LDAO at 0.6 mM raised activity | Increase of NS3/4a protease activity (HCV NS3/4a protease; LDAO at 0.6 mM): significantly (~10-fold)

Triton X100
Activity (NS3 Helicase; no LDAO, detergent 0.020%): 66% | Slope (NS3 Helicase; no LDAO, detergent 0.020%): −0.25 mP/min | Activity (NS3 Helicase; no LDAO, detergent 0.075%): 53% | Slope (NS3 Helicase; no LDAO, detergent 0.075%): −0.2 mP/min | Slope (NS3 Helicase; [1]): −1.51 mP/min | Activity (NS3 Helicase; [2]): 397% | Slope (NS3 Helicase; [3]): −1.19 mP/min | Activity (NS3 Helicase; [4]): 313%

O[C@@H](CS)[C@@H](O)CS [DTT]
Conclusion (effect of additive on NS3/4a protease reaction rate) (HCV NS3/4a protease): 10 and 30 mM DTT improve activity.

[Cl-].[Na+] [NaCl]
Conclusion (effect of additive on NS3/4a protease reaction rate) (HCV NS3/4a protease): NaCl detrimental to activity

Pluronic F127
Activity (NS3 Helicase; no LDAO, detergent 0.020%): 126% | Slope (NS3 Helicase; no LDAO, detergent 0.020%): −0.48 mP/min | Activity (NS3 Helicase; no LDAO, detergent 0.075%): 155% | Slope (NS3 Helicase; no LDAO, detergent 0.075%): −0.59 mP/min | Slope (NS3 Helicase; [1]): −1.14 mP/min | Activity (NS3 Helicase; [2]): 300% | Slope (NS3 Helicase; [3]): −1.29 mP/min | Activity (NS3 Helicase; [4]): 339%

KGSVVIVGRIILSGRK [NS4a peptide, "The NS4a surrogate peptide used (…) was obtained from Midwest Biotech", reference compound]
Conclusion (effect of additive on NS3/4a protease reaction rate) (HCV NS3/4a protease): Best activity at 25 and 2500 μM

O=C(O)CCP(CCC(=O)O)CCC(=O)O [TCEP]
Conclusion (effect of additive on NS3/4a protease reaction rate) (HCV NS3/4a protease): detrimental to activity

CCCCCCCCCCCCCCCC[N+](C)(C)C.[Br-] [hexadecyltrimethylammonium bromide]
Slope (NS3 Helicase; [5]): 0.24 mP/min | Activity (NS3 Helicase; [6]): −39% | Slope (NS3 Helicase; [7]): 0.74 mP/min | Activity (NS3 Helicase; [8]): −121%

CC(C)c1ccc(CC(C(=O)O)c2cn(Cc3ccc(C(C)C)cc3)c3ccc(Br)cc23)cc1 (stereo not drawn) [Example 685]
IC50 (HCV NS3 helicase; [9]): < 10 µM

Cc1cc(-c2cccc(Cn3cc(CC(=O)O)c4cc(OCc5ccccc5)ccc43)c2)ccc1F [Example 118]
IC50 (HCV NS3 helicase; [10]): < 10 µM

CCOC(=O)Cc1cn(Cc2ccc(Oc3cccc(OC)c3)cc2)c2cc(-c3cccc(OC(C)=O)c3)ccc12 [Example 602]
IC50 (HCV NS3 helicase; [10]): 10 to 50 µM

CCOC(=O)c1ccc(Cn2cc(CC(=O)O)c3cc(OCc4ccccc4)ccc32)o1 [Example 128]
IC50 (HCV NS3 helicase; [10]): 10 to 50 µM

COc1ccc(-c2cccc(C(=O)c3[nH]c4ccccc4c3CC(=O)O)c2)cc1 [Example 236]
IC50 (HCV NS3 helicase; [10]): 10 to 50 µM

Cc1oncc1C(=O)Nc1ccc(-n2cc(CC(=O)O)c3ccccc32)cc1 [Example 163]
IC50 (HCV NS3 helicase; [10]): 10 to 50 µM

CCOC(=O)c1c(CC(=O)O)c2cc(Br)ccc2n1Cc1ccc(C(C)C)cc1 [Example 427]
IC50 (HCV NS3 helicase; [10]): 10 to 50 µM

CCOC(=O)Cc1cn(Cc2c(-c3ccccc3)sc3ccccc23)c2cc(-c3cc(N)cc(N)c3)ccc12 [Example 712]
IC50 (HCV NS3 helicase; [11]): < 10 µM

CCOC(=O)Cc1cn(Cc2ccc(Oc3ccc(C(F)(F)F)cc3)cc2)c2ccccc12 [Example 516]
IC50 (HCV NS3 helicase; [10]): 10 to 50 µM

O=C(O)Cc1c(C(=O)c2cccc(-c3cccc(OC(F)(F)F)c3)c2)[nH]c2ccccc12 [Example 237]
IC50 (HCV NS3 helicase; [10]): 10 to 50 µM

Cc1ccc(CNC(=O)c2c(CC(=O)O)c3cc(Br)ccc3n2Cc2ccc(C(C)C)cc2)o1 [Example 444]
IC50 (HCV NS3 helicase; [10]): 10 to 50 µM

CC(C)c1ccc(Cn2c(C(=O)Nc3cccc(NS(C)(=O)=O)c3)c(CC(=O)O)c3ccccc32)cc1 [Example 462]
IC50 (HCV NS3 helicase; [10]): < 10 µM

CN(c1cc(Cl)cc2c(Cn3cc(CC(=O)O)c4ccc(-c5cc(N)cc(N)c5)cc43)csc12)S(C)(=O)=O [Example 730]
IC50 (HCV NS3 helicase; Table 38, compounds made using Scheme 56, Scheme 57 and Scheme 61): 10 to 50 µM

CC(C)(C)OC(=O)NCc1ccc2c(c1)c(Cc1nn[nH]n1)cn2Cc1csc2ccc(Cl)cc12 [Example 208]
IC50 (HCV NS3 helicase; [10]): < 10 µM

NC(=O)c1cccc(-c2ccc3c(CC(=O)O)cn(Cc4csc5ccc(Cl)cc45)c3c2)c1 [Example 763]
IC50 (HCV NS3 helicase; Table 37, compounds made using Scheme 55): 10 to 50 µM

COc1ccccc1-c1ccc(Cc2[nH]c3ccccc3c2CC(=O)O)cc1 [Example 284]
IC50 (HCV NS3 helicase; [10]): 10 to 50 µM

CCOC(=O)Cc1cn(Cc2csc3ccc(OC(F)(F)F)cc23)c2cc(-c3cc(N)cc(N)c3)ccc12 [Example 718]
IC50 (HCV NS3 helicase; [11]): 10 to 50 µM

Cc1c(N)cc(N)cc1-c1ccc2c(CC(=O)O)cn(Cc3csc4ccc(Cl)cc34)c2c1 [Example 628]
IC50 (HCV NS3 helicase; [12]): < 10 µM

Cc1cc([N+](=O)[O-])ccc1-n1cc(C(=O)O)c2cc(Br)ccc21 [Example 382]
IC50 (HCV NS3 helicase; [10]): > 50 µM

Cc1cc(NC(=O)CSc2ccccc2)ccc1-n1cc(CC(=O)O)c2ccccc21 [Example 159]
IC50 (HCV NS3 helicase; [10]): 10 to 50 µM

O=C(O)Cc1cn(Cc2cccc(Oc3cccc(Cl)c3)c2)c2ccccc12 [Example 476]
IC50 (HCV NS3 helicase; [10]): < 10 µM

CN(c1cccc(Cn2cc(CC(=O)O)c3ccccc32)c1)c1cccc(Cl)c1Cl [Example 537]
IC50 (HCV NS3 helicase; [10]): < 10 µM

CC(CO)N(Cc1ccccc1)c1ccc(-n2cc(CC(=O)O)c3ccccc32)cc1 (stereo not drawn) [Example 172]
IC50 (HCV NS3 helicase; [10]): < 10 µM

COC(=O)C(Cc1ccc(C(C)C)cc1)c1cn(-c2ccc([N+](=O)[O-])cc2C)c2ccc(Br)cc12 (stereo not drawn) [Example 407]
IC50 (HCV NS3 helicase; [10]): > 50 µM

Cc1cc([N+](=O)[O-])ccc1-n1ccc2cc(Br)ccc21 [Example 376]
IC50 (HCV NS3 helicase; [10]): > 50 µM

O=C(O)Cc1c(Cc2ccc(-c3ccccc3)cc2)sc2ccccc12 [Example 306]
IC50 (HCV NS3 helicase; [10]): < 10 µM

O=C(O)Cc1c(Cc2ccc(-c3ccccc3Cl)cc2)[nH]c2ccccc12 [Example 279]
IC50 (HCV NS3 helicase; [10]): < 10 µM

COc1cccc(Cn2cc(CC(=O)O)c3cc(Br)ccc32)c1 [Example 111]
IC50 (HCV NS3 helicase; [10]): 10 to 50 µM

CNc1nc(-c2ccc3c(CC(=O)O)cn(Cc4csc5ccc(Cl)cc45)c3c2)nc2[nH]cnc12 [Example 640]
IC50 (HCV NS3 helicase; [12]): < 10 µM

O=C(O)Cc1c(C(=O)c2cccc(-c3cccc(Cl)c3Cl)c2)oc2ccccc12 [Example 241]
IC50 (HCV NS3 helicase; [10]): < 10 µM

Cc1ccccc1-c1ccc(Cc2[nH]c3ccccc3c2CC(=O)O)cc1 [Example 283]
IC50 (HCV NS3 helicase; [10]): 10 to 50 µM

O=C(O)Cc1cn(Cc2cccc(Oc3ccc(F)cc3)c2)c2ccccc12 [Example 474]
IC50 (HCV NS3 helicase; [10]): < 10 µM

Nc1cc(N)cc(-c2ccc3c(CC(=O)NS(=O)(=O)C4CC4)cn(Cc4csc5ccc(Cl)cc45)c3c2)c1 [Example 688]
IC50 (HCV NS3 helicase; [9]): < 10 µM
